# Data published in article PMC5515859, “Metabolism of F18, a Derivative of Calanolide A, in Human Liver Microsomes and Cytosol” (Frontiers in Pharmacology, 2017).
# Where two headings read alike, the source gives them in different places.
# Legend:
# [1] = test system: carbonyl reductases in HLM; experiment: Inhibition of carbonyl reduction of F18 (formation of M3-1 and M3-2) by chemical inhibitors in HLM; type: in vitro ADME, human; conditions: NADPH, F18 10 μM, 30 min
# Procedure: F18 (10 μM) was incubated with HLMs (0.5 mg/mL) and the NADPH-generating system for 30 min or with HLcy and a cofactor (NADPH or NADH) for 10 min in the presence of chemical inhibitors under the above-described conditions. Control incubations using the vehicles but not the chemical inhibitors were also performed. The formation of M3-1 and M3-2 was quantified by LC-MS/MS.
# (§1) The amounts of F18, M1, M2-9, M3-1, M3-2, M5-2, M5-3, M5-4, and M5-5 in the incubations were simultaneously quantified with the LC-MS/MS system. […] The sheath gas, auxiliary gas, spray voltage and tube lens parameters were the same as those for the metabolic profiling studies.
# CYP2E1 = conditions: cited from earlier work
# CYP2C9 = test system: CYP2C9; parameters: method as in unpublished data; conditions: previous study; ref unpublished data; cited from earlier work
# recombinant CYP3A4 = target: T1, recombinant CYP3A4 (Homo sapiens, UniProt P08684); experiment: Metabolism of F18 by cDNA-expressed CYP3A4; type: in vitro ADME; conditions: F18 10 μM, 50 pmol/mL enzyme, 1 h; among 14 CYP isoforms
# T1 construct: purchased BD Gentest (Woburn, MA, USA)
# Procedure: To further verify the roles of CYPs and FMOs in the metabolism of F18 in humans, F18 (10 μM) was incubated individually with 14 cDNA-expressed human CYP isozymes (50-pmol/mL CYP1A1, CYP1A2, CYP2A6, CYP2B6, CYP2C8, CYP2C9, CYP2C19, CYP2D6, CYP2E1, CYP2J2, CYP3A4, CYP4F2, CYP4F3, and CYP4A11) and three cDNA-expressed FMO enzymes (50-pmol/mL FMO1, FMO3, and FMO5). The incubation conditions were similar to those used for HLMs (described above), with the exception of the incubating time […]. Samples incubated without NADPH were used as the negative control.
# CYP1A2 [2] = test system: CYP1A2; parameters: method as in unpublished data; conditions: previous study; ref unpublished data; cited from earlier work
# [3] = test system: Y181C single mutation of HIV-1; conditions: ref Xue et al., 2010; cited from earlier work
# VSV-G/HIV-1 viruses = experiment: microbe, parasite or virus in culture; type: cell-based; conditions: Human immunodeficiency virus 1, HEK-293T, 48 h, read-out: IC50, inhibition of HIV-1 replication
# CYP3A4 [4] = test system: CYP3A4; parameters: method as in unpublished data; conditions: previous study; ref unpublished data; cited from earlier work
# [5] = Pharmacokinetics in rats after oral administration of F18; type: in vivo, Sprague-Dawley rats; conditions: rat blood, oral F18 50 mg/kg, mean ± SD, n = 5
# Procedure: To investigate the pharmacokinetic characteristics of F18 and its major metabolites, five rats were intragastrically administered F18 at a dose of 50 mg/kg. Blood samples were collected in heparinized ice-bath tubes from the suborbital veniplex at 0, 0.25, 0.5, 1, 2, 4, 6, 8, 12, 16, and 24 h postdose. The blood concentrations of F18 and its major metabolites were determined by LC-MS/MS and their pharmacokinetic parameters were calculated through non-compartmental analysis using WinNonlin Version 6.1 (Pharsight, Mountain View, CA, USA).
# For the blood samples, F18, M1, M3-1, and M3-2 were simultaneously quantified using the following elution gradient: Solvent B was maintained at 15% for 2 min, increased to 85% in 1 min, maintained at 85% for 5 min, decreased to 15% in 0.5 min and maintained at 15% for 4.5 min. Detection was also performed using a Finnigan TSQ Quantum MS instrument with an electrospray ionization probe operated in the positive mode.
# Calibration curves for F18 and its metabolites were fitted via linearly weighted (1/x^2) least-squares regression. The correlation coefficient values of F18 and its metabolites in the incubations were >0.99 for the range 10–5,000 nM; the LOQ was 10 nM with a signal-to-noise ratio >10:1; the accuracies were 90–113% and the precisions (RSD) were <10.5%. In the blood samples, the correlation coefficient values for F18, M1, M3-1, and M3-2 were >0.99 for the range 5–2,000 nM; the LOQ was 5 nM with the signal-to-noise ratio >10:1; the accuracies were 91–112% and the precisions (RSD) were <9.6%. In addition, no interference was found in the retention time of each analyte in both the incubated samples and the blood samples.
# CYP2C19 [6] = test system: CYP2C19; parameters: method as in unpublished data; conditions: previous study; ref unpublished data; cited from earlier work
# CYPs and FMOs in HLMs = experiment: Microsomal incubations of F18 with chemical inhibitors of CYPs or thermal inactivation of FMOs
# Procedure: (§2) The contributions of CYPs and FMOs to the metabolism of F18 were investigated by chemical inhibition and thermal inactivation, respectively. […] Briefly, F18 (10 μM) was incubated with HLMs (0.5 mg protein/mL) and an NADPH-generating system in the absence and presence of CYP inhibitors at 37°C for 30 min, and the reaction was terminated with two volumes of ice-cold acetonitrile. […] In brief, HLMs (0.5 mg protein/mL) were preheated at 50°C for 5 min and then immersed in an ice-cold bath. After the addition of F18 (10 μM) and equilibration for 3 min at 37°C, the reaction was started by the addition of the NADPH-generating system. After a 30-min incubation, the reactions were terminated as described above. […] The formation of the major metabolites M1, M2-9, M3-1, M3-2, M5-2, M5-3, M5-4, and M5-5 was analyzed by LC-MS/MS.
# as §1
# HIV-1 = conditions: ref Xue et al., 2010, cited from earlier work
# CYP1A2 [7] = conditions: cited from earlier work
# [8] = parameters: method as in Creagh et al., 2001; Eiznhamer et al., 2002; conditions: ref Creagh et al., 2001; Eiznhamer et al., 2002; cited from earlier work
# CYP2D6 = conditions: cited from earlier work
# CYP3A4/5 = conditions: cited from earlier work
# CYP3A4 [9] = experiment: Microsomal incubations of F18 with chemical inhibitors of CYPs or thermal inactivation of FMOs; conditions: human, human liver microsomes
# Procedure: as §2, §1
# CYP2C19 [10] = conditions: cited from earlier work
# [11] = high concentration: 18β-glycyrrhetinic acid 0.5 μM, 2-CEE 5 mM
# [12] = low concentration: 18β-glycyrrhetinic acid 0.1 μM, 2-CEE 1 mM
# [13] = HLMs preheated at 50°C for 5 min, F18 10 μM
# T1 sequence (P08684 whole entry, canonical isoform): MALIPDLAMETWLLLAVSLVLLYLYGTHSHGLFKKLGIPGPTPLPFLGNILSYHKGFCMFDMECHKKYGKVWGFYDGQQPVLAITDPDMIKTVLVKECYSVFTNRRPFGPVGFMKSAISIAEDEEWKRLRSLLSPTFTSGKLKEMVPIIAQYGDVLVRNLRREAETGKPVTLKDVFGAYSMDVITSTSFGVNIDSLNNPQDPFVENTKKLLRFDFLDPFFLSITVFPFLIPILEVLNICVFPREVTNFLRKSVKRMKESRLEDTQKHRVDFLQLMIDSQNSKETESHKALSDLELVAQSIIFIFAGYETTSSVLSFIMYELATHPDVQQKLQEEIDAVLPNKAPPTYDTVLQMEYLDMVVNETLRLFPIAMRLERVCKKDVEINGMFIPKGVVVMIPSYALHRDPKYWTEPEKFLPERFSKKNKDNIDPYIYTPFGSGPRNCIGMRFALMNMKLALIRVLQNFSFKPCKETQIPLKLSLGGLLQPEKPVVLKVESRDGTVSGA
structure (smiles),measurement,setting,value
"CC1(C)[C@@H](O)CC[C@]2(C)[C@H]3C(=O)C=C4[C@@H]5C[C@@](C)(C(=O)O)CC[C@]5(C)CC[C@@]4(C)[C@]3(C)CC[C@@H]12 [18β-Glycyrrhetinic, 18β-glycyrrhetinic acid]","Percentage of inhibition of the formation of M3-1, H",[1]; [11],13.7%
same,"Percentage of inhibition of the formation of M3-2, H",[1]; [11],67.5%
same,"Percentage of inhibition of the formation of M3-1, L",[1]; [12],1.2%
same,"Percentage of inhibition of the formation of M3-2, L",[1]; [12],51.4%
Cc1ncsc1CCCl [Clomethiazole],Ki,CYP2E1,12000 nM
"CCCc1cc(=O)oc2c3c(c4c(c12)OC(C)(C)C=C4)OC(CCl)CC3=O (centres unmarked) [Metabolite F18, 10-Chloromethyl-11-demethyl-12-oxo-calanolide A]",Effect on CYP2C9,CYP2C9,potent inhibitory effects
same,"Metabolic activity of recombinant CYP3A4 for the formation of M1, M2-9, M5-2, M5-3, M5-4, and M5-5",recombinant CYP3A4,highest metabolic activity
same,Effect on CYP1A2,CYP1A2 [2],potent inhibitory effects
same,Potency against Y181C mutant HIV-1 (in words),[3],extremely high potency
same,IC50,VSV-G/HIV-1 viruses,190 nM
same,Effect on CYP3A4,CYP3A4 [4],activation-inducing effect
same,Cmax,[5]; Sprague-Dawley,443 ± 107 nM
same,Tmax,[5]; Sprague-Dawley,3.3 ± 2.2 h
same,half-life,[5]; Sprague-Dawley,5.3 ± 2.8 h
same,MRT last,"[5]; Sprague-Dawley, read-out: MRT0−t",7.8 ± 1 h
same,MRT inf,"[5]; Sprague-Dawley, read-out: MRT0−∞",10 ± 2.4 h
same,AUC0−∞,[5]; 50 mg/kg,"5,166 h^*nM"
same,Effect on CYP2C19,CYP2C19 [6],potent inhibitory effects
same,Formation of M3-1 after thermal inactivation of FMOs,CYPs and FMOs in HLMs; [13],significantly inhibited
same,Reduction in M1 formation by thermal inactivation of FMOs,CYPs and FMOs in HLMs; [13],64%
same,therapeutic (index),HIV-1,1417
same,EC50,HIV-1; read-out: half-maximal effective concentration (EC50),7.4 nM
CCOc1ccc(NC(C)=O)cc1 [Phenacetin],Km,"CYP1A2 [7]; read-out: substrate Km, CYP1A2, metabolite Acetaminophen, ref FDA Drug Development and Drug Interactions",1.7 to 152 µM
"CCCc1cc(=O)oc2c3c(c4c(c12)OC(C)(C)C=C4)O[C@H](C)[C@@H](C)[C@@H]3O [calanolide A, Calanolide A]",Tolerability in Phase I studies,[8],well tolerated
COc1ccc2c(c1)[C@]13CCCC[C@@H]1[C@H](C2)N(C)CC3 [dextromethorphan],Km,CYP2D6,0.44 to 8.5 µM
C=CCSSCC=C [diallyldisulfide],Ki,CYP2E1,150000 nM
CC(=O)N1CCN(c2ccc(OCC3COC(Cn4ccnc4)(c4ccc(Cl)cc4Cl)O3)cc2)CC1 (centres unmarked) [ketoconazole],Ki,CYP3A4/5,3.7 to 180 nM
same,"inhibition at 30 min, 1 μM",CYP3A4 [9],> 80%
same,"inhibition at 30 min, 1 μM","CYP3A4 [9]; probe F18 (10 μM), formation of metabolite M1",20 to 30%
Cc1ncc2n1-c1ccc(Cl)cc1C(c1ccccc1F)=NC2 [midazolam],Km,CYP3A4/5,1 to 14 µM
same,Metabolism of probe substrate after thermal inactivation of HLMs,CYPs and FMOs in HLMs,unchanged
C=C(C)[C@@H]1CCC2=CC(=O)C[C@@H](C)[C@]2(C)C1 [nootkatone],Ki,CYP2C19 [10],500 nM
